Experimental data from US12581252B2, “Substituted pyrrolo[3,4-b]pyridines as PI3K-α inhibitors” (Relay Therapeutics, Inc., priority 2020, dated 2026).

Biological target: H1047R PIK3CA enzyme (Homo sapiens, UniProt P42336, H1047R)
Assay: ADP-Glo Biochemical PIK3CA Kinase Assay

Chain of H1047R PIK3CA enzyme (P42336 whole entry H1047R): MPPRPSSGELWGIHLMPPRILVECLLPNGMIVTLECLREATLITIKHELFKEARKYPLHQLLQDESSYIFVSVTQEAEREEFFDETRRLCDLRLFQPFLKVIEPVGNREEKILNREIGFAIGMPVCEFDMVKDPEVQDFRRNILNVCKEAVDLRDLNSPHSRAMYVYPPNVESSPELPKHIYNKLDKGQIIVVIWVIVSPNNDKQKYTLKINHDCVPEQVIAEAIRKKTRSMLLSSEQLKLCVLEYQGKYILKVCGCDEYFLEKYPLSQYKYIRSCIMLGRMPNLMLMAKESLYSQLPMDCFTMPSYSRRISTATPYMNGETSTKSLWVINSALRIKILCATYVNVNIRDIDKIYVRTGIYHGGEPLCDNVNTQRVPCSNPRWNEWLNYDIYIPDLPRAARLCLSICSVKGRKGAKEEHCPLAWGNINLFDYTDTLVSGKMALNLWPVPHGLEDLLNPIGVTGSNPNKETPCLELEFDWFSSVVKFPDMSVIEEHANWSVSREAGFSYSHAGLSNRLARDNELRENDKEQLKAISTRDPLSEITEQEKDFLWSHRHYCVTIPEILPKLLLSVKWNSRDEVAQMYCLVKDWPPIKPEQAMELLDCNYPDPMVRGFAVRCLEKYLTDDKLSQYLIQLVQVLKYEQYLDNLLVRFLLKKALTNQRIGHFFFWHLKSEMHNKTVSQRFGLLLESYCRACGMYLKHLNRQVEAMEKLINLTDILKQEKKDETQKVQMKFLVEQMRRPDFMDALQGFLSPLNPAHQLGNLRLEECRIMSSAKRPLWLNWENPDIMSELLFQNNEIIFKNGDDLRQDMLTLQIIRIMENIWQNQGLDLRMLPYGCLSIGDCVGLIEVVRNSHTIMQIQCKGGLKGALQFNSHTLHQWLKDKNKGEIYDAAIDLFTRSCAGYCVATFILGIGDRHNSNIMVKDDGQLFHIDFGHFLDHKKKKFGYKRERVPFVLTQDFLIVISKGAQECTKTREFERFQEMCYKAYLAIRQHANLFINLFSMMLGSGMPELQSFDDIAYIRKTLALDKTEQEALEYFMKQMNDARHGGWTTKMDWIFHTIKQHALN
Chain of H1047R PIK3CA enzyme (P27986 whole entry partner): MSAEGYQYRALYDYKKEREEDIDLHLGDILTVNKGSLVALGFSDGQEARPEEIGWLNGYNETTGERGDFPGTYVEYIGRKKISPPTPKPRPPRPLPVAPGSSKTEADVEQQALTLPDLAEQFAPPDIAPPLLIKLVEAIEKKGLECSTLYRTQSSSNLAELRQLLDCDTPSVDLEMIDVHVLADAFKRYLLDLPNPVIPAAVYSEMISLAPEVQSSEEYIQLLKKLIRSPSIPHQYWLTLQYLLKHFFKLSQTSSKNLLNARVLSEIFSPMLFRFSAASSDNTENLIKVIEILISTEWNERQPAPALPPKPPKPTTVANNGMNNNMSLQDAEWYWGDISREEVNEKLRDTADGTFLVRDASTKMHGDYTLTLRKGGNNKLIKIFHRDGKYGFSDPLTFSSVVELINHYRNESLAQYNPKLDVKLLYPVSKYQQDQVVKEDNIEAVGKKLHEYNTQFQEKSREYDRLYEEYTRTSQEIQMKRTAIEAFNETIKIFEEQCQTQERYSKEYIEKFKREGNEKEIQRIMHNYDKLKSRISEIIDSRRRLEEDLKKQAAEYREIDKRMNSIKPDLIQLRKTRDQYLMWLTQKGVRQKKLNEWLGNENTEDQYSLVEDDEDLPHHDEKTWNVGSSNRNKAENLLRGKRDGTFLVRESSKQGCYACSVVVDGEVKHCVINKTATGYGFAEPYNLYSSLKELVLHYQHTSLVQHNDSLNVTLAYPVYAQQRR

| Structure (SMILES) | IC50 [µM] |
| --- | --- |
| O=C1NC(c2cc(F)ccc2Cl)c2c(NC(=O)N3CCC(C(F)(F)F)C3)cc(Br)cc21 (stereo not shown) [Compound I-543] | 1 to 10 |
| O=C(Nc1cc(Br)cc2c1C(c1cc(F)ccc1Cl)NC2=O)c1cccc(C(F)F)c1 (stereo not shown) [Compound I-570] | 1 to 10 |
| N#CCC(O)c1cc(NC(=O)c2cc(F)cc(C(F)(F)F)c2)c2c(c1)C(=O)NC2c1cc(F)ccc1Cl (racemic) [Compound I-1243] | ≤ 0.1 |
| Cc1ncc(-c2cc(NC(=O)c3cc(F)cc(C(F)(F)F)c3)c3c(n2)C(=O)NC3c2cc(F)ccc2Cl)cn1 (stereo not shown) [Compound I-584] | ≤ 0.1 |
| Cc1ccccc1C1NC(=O)c2cccc(NC(=O)c3coc4c(F)cc(Cl)cc34)c21 (stereo not shown) [Compound I-81] | ≤ 0.1 |
| O=C(Nc1cc(Br)cc2c1C(c1cc(F)ccc1Cl)NC2=O)NC1(C(F)(F)F)CC1 (stereo not shown) [Compound I-1294] | 1 to 10 |
| Cc1ccccc1C1NC(=O)c2cccc(NC(=O)C(F)(F)F)c21 (stereo not shown) [Compound I-16] | 10 to 100 |
| CNC1(c2cc(F)ccc2Cl)NC(=O)c2cc(C[S+](C)[O-])cc(NC(=O)c3cc(F)cc(C(F)(F)F)c3)c21 (stereo not shown) [Compound I-1138] | 1 to 10 |
| O=C(Nc1cc(Br)cc2c1[C@@H](c1cc(F)ccc1Cl)NC2=O)c1cc(F)cc(C(F)(F)F)c1 [Compound I-387] | 1 to 10 |
| O=C(Nc1cc(Br)cc2c1C(c1cc(F)ccc1F)NC2=O)c1cc(F)cc(C(F)(F)F)c1 (stereo not shown) [Compound I-675] | ≤ 0.1 |
| CC(C)(O)c1cc(NC(=O)c2cc(F)cc(Cl)c2)c2c(c1)C(=O)N[C@@H]2c1cc(F)ccc1Cl [Compound I-299] | 10 to 100 |
| Cc1ccccc1C1NC(=O)c2cccc(NC(=O)c3c[nH]c(=O)c(Br)c3C)c21 (stereo not shown) [Compound I-504] | 10 to 100 |
| COc1cc(C)c(C(=O)Nc2cccc3c2C(c2ccccc2C)NC3=O)cn1 (stereo not shown) [Compound I-501] | 10 to 100 |
| Nc1nnc2ccc(-c3cc(NC(=O)c4cc(F)cc(C(F)(F)F)c4)c4c(c3)C(=O)N[C@@H]4c3cc(F)ccc3Cl)cn12 [Compound I-1448] | 0.5 to 1 |
| Cn1ccc(-c2cc(NC(=O)c3cc(F)cc(C(F)(F)F)c3)c3c(c2)C(=O)N[C@H]3c2cc(F)ccc2Cl)cc1=O (stereo in doubt) [Compound I-1001] | 1 to 10 |
| CC(C)(O)c1cnc2ccc(-c3cc(NC(=O)c4cc(F)cc(C(F)(F)F)c4)c4c(c3)C(=O)N[C@H]4c3cc(F)ccc3Cl)cc2c1 [Compound I-1604] | ≤ 0.1 |
| O=C(Nc1cc(O)cc2c1C(c1cc(F)ccc1Cl)NC2=O)c1cc(F)cc(C(F)(F)F)c1 (stereo not shown) [Compound I-363] | ≤ 0.1 |
| O=C(Nc1cc(-c2cnn3ccnc3c2)cc2c1C(c1cc(F)ccc1Cl)NC2=O)c1cc(F)cc(C(F)(F)F)c1 (stereo not shown) [Compound I-1504] | ≤ 0.1 |
| O=C(Nc1cc(-c2ccc3ncnn3c2)cc2c1[C@@H](c1cc(F)ccc1C(F)F)NC2=O)c1cc(F)cc(C(F)(F)F)c1 (stereo in doubt) [Compound I-1055] | 1 to 10 |
| Cc1ccccc1C1NC(=O)c2cccc(NC(=O)c3nsc4ccc(C#N)cc34)c21 (stereo not shown) [Compound I-377] | 1 to 10 |

| Structure (SMILES) | IC50 [µM] |
| --- | --- |
| Cc1ccccc1C1NC(=O)c2cccc(NC(=O)c3noc4c3CCCCC4)c21 (stereo not shown) [Compound I-292] | 10 to 100 |
| CN1C(=O)CC[C@H]1COc1cc(NC(=O)c2cc(F)cc(C(F)(F)F)c2)c2c(c1)C(=O)N[C@@H]2c1cc(F)ccc1Cl (single isomer, unassigned) [Compound I-1568] | 1 to 10 |
| Cn1cc(-c2cc(NC(=O)c3cc(F)cc(C(F)(F)F)c3)c3c(c2)C(=O)NC3c2cc(F)ccc2Cl)c(C#N)n1 (stereo not shown) [Compound I-1656] | ≤ 0.1 |
| O=C(Nc1cc(OC2CCOC2)cc2c1C(c1cc(F)ccc1Cl)NC2=O)c1cc(F)cc(C(F)(F)F)c1 (stereo not shown) [Compound I-1184] | ≤ 0.1 |
| O=C(Nc1cc(CN2CCn3ncnc3C2)cc2c1C(c1cc(F)ccc1Cl)NC2=O)c1cc(F)cc(C(F)(F)F)c1 (stereo not shown) [Compound I-1400] | ≤ 0.1 |
| O=C1NC(c2cnccc2Cl)c2c(NC(=O)c3nsc4ccccc34)cccc21 (stereo not shown) [Compound I-160] | 0.5 to 1 |
| O=C(Nc1cc(-c2ccc3ncnn3c2)cc2c1[C@@H](c1cc(F)cc(F)c1Cl)NC2=O)c1cc(F)cc(C(F)(F)F)c1 (stereo in doubt) [Compound I-1063] | 10 to 100 |
| O=C(Nc1cc(-c2ccc3ncnn3c2)cc2c1[C@@H](c1cc(F)ccc1Cl)NC2=O)c1ccc(F)c(OC(F)(F)F)c1 (stereo in doubt) [Compound I-1108] | 1 to 10 |
| O=C(Nc1cc(CC(O)CO)cc2c1C(c1cc(F)ccc1Cl)NC2=O)c1cc(F)cc(C(F)(F)F)c1 (stereo not shown) [Compound I-1376] | ≤ 0.1 |
| Nc1cc(NC(=O)c2cc(F)cc(C(F)(F)F)c2)cc2c1C(c1cc(F)ccc1C(F)F)NC2=O (stereo not shown) [Compound I-269] | 10 to 100 |
| CC1(C(=O)Nc2cc(Br)cc3c2C(c2cc(F)ccc2Cl)NC3=O)CCCC(C(F)(F)F)C1 (mixture of isomers) [Compound I-1358] | 0.1 to 0.5 |
| O=C(Nc1cccc2c1C(c1cccc3cn[nH]c13)NC2=O)c1cc(F)cc(C(F)(F)F)c1 (stereo not shown) [Compound I-666] | 10 to 100 |
| CC(=O)N1CC(Oc2cc(NC(=O)c3cc(F)cc(C(F)(F)F)c3)c3c(c2)C(=O)NC3c2cc(F)ccc2Cl)C1 (stereo not shown) [Compound I-1251] | 0.1 to 0.5 |
| O=C(Nc1cc(N2CCc3cnccc32)cc2c1C(c1cc(F)ccc1Cl)NC2=O)c1cc(F)cc(C(F)(F)F)c1 (stereo not shown) [Compound I-1261] | ≤ 0.1 |
| O=C1NC(c2cc(F)ccc2Cl)c2c(NC(=O)C34CC5CC(CC(F)(C5)C3)C4)cccc21 (stereo not shown) [Compound I-1133] | 0.5 to 1 |
| CC(C)Oc1cc(NC(=O)c2cc(F)cc(C(F)(F)F)c2)c2c(c1)C(=O)NC2c1cc(F)ccc1Cl (stereo not shown) [Compound I-1253] | ≤ 0.1 |
| O=C1NC(c2cc(F)ccc2Cl)c2c(NC(=O)N3CC(C(F)(F)F)CC(C(F)(F)F)C3)cc(Br)cc21 (racemic) [Compound I-661] | 1 to 10 |
| O=C(Nc1cc(-c2cnn(C3CC3)c2)cc2c1[C@@H](c1cc(F)ccc1Cl)NC2=O)c1cc(F)cc(C(F)(F)F)c1 (single isomer, unassigned) [Compound I-1021] | 10 to 100 |
| O=C(Nc1cc(Br)cc2c1C(c1cc(F)ccc1Cl)NC2=O)c1cc2ccccc2[nH]1 (stereo not shown) [Compound I-1610] | 1 to 10 |
| O=C(Nc1cc(NCC(F)(F)F)nc2c1C(c1cc(F)ccc1Cl)NC2=O)c1cc(F)cc(C(F)(F)F)c1 (stereo not shown) [Compound I-321] | ≤ 0.1 |

Other lines, results leading:

| IC50 [µM] | Structure (SMILES) |
| --- | --- |
| 1 to 10 | O=C1N[C@@H](c2cc(F)ccc2Cl)c2c(NC(=O)N3C[C@](O)(C(F)(F)F)c4ccccc43)cc(Cl)cc21 (single isomer, unassigned) [Compound I-2507] |
| 0.5 to 1 | N#Cc1cnc2ncc(-c3cc(NC(=O)c4cc(F)cc(C(F)(F)F)c4)c4c(c3)C(=O)N[C@@H]4c3cc(F)ccc3Cl)cn12 [Compound I-1858] |
| 10 to 100 | C[S+]([O-])c1cc(-c2ccc3ncnn3c2)cc2c1C(c1cc(F)ccc1Cl)NC2=O (stereo not shown) [Compound I-1940] |
| 0.1 to 0.5 | O=C1N[C@@H](c2cc(F)ccc2Cl)c2c(NC(=O)N3C[C@H](O)c4cc(F)ccc43)cc(Cl)cc21 (single isomer, unassigned) [Compound I-2400] |
| 1 to 10 | C[C@@H](c1nn[nH]c1C(=O)Nc1cccc2c1[C@H](c1cc(F)ccc1Cl)NC2=O)C(F)(F)F (single isomer, unassigned) [Compound I-2271] |
| ≤ 0.1 | N#Cc1cnc2cc(F)c(-c3cc(NC(=O)c4cc(F)cc(C(F)(F)F)c4)c4c(c3)C(=O)NC4c3cc(F)ccc3Cl)cn12 (stereo not shown) [Compound I-1838] |
| 10 to 100 | O=C1NC(c2cc(F)ccc2Cl)c2c(NC(=O)C3CCCCO3)cc(-c3ccc4ncnn4c3)cc21 (stereo not shown) [Compound I-1803] |
| 10 to 100 | N#C[C@@H]1CCN(C(=O)Nc2cc(-c3ccc4ncnn4c3)cc3c2C(c2cc(F)ccc2Cl)NC3=O)C1 (mixture of isomers) [Compound I-2416] |
| ≤ 0.1 | N#CCc1cc(NC(=O)N2C[C@@H](O)c3cc(F)ccc32)c2c(c1)C(=O)N[C@@H]2c1cc(F)ccc1Cl (single isomer, unassigned) [Compound I-2538] |
| 1 to 10 | O=C1N[C@@H](c2cc(F)ccc2Cl)c2c(NC(=O)N3C[C@@](O)(C(F)(F)F)c4cc(F)ccc43)cc(Cl)nc21 (single isomer, unassigned) [Compound I-2705] |
| 10 to 100 | CC(=O)N[C@H]1CC[C@@H](C(=O)Nc2cc(-c3ccc4ncnn4c3)cc3c2C(c2cc(F)ccc2Cl)NC3=O)CC1 (mixture of isomers) [Compound I-1849] |
| 10 to 100 | O=C1N[C@H](c2cc(F)ccc2Cl)c2c(NC(=O)N3C[C@H](O)c4cc(F)c(F)cc43)cccc21 (single isomer, unassigned) [Compound I-2294] |
| 0.5 to 1 | Cc1nn(C(=O)Nc2cccc3c2C(c2cc(F)ccc2Cl)NC3=O)c2ccccc12 (stereo not shown) [Compound I-2380] |
| 1 to 10 | O=C1N[C@@H](c2cc(F)ccc2Cl)c2c(NC(=O)N3C[C@@](O)(C(F)(F)F)c4cc(F)ccc43)cc(F)cc21 (single isomer, unassigned) [Compound I-2628] |
| 10 to 100 | O=C1N[C@H](c2cc(F)ccc2Cl)c2c(NC(=O)[C@H]3CC[C@@H](C(F)(F)F)C3)cccc21 [Compound I-2083] |
| 1 to 10 | O=C1N[C@@H](c2cc(F)ccc2Cl)c2c(NC(=O)N3C[C@@](O)(C(F)(F)F)c4cc(F)ccc43)ccnc21 (single isomer, unassigned) [Compound I-2700] |
| 10 to 100 | O=C1NC(c2cc(F)ccc2Cl)c2c(Nc3ccn(C4CC4)n3)cc(-c3ccc4ncnn4c3)cc21 (stereo not shown) [Compound I-1993] |
| 10 to 100 | CN(C)C(=O)c1cc(-c2ccc3ncnn3c2)cc2c1C(c1cc(F)ccc1Cl)NC2=O (stereo not shown) [Compound I-1857] |
| 0.5 to 1 | O=C1N[C@@H](c2cc(F)ccc2Cl)c2c(NC(=O)[C@H]3C[C@H](O)C[C@@H](C(F)(F)F)C3)cc(Br)cc21 (single isomer, unassigned) [Compound I-2179] |
| 1 to 10 | [2H][C@@]1(c2cc(F)ccc2Cl)NC(=O)c2cccc(NC(=O)N3C[C@](O)(C(F)(F)F)c4cc(F)ccc43)c21 (single isomer, unassigned) [Compound I-2681] |
| 1 to 10 | O=C1N[C@@H](c2cc(F)ccc2Cl)c2c(NC(=O)N3C[C@](O)(C(F)(F)F)c4cc(F)ccc43)cc(-n3ncccc3=O)cc21 (single isomer, unassigned) [Compound I-2533] |
